Measurements: ChEMBL document CHEMBL1201862, “PubChem BioAssay data set” (2004)
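Tested at 5 concentrations; 48 h exposure; 96-well plates; endpoints linearly interpolated, else capped at highest concentration. At the GI50, growth is halved.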 The source made the active and inactive calls. No stated cut-off is given here; in the data, active = GI50 up to about 1.1 µM and inactive = higher.

Legend:
Experiment in all cases: NCI-60 cell line screen, 48 h
SNB-75 = test system: SNB-75
SF-539 = test system: SF-539
OVCAR-4 = test system: OVCAR-4
HOP-92 = test system: HOP-92
CAKI-1 = test system: CAKI-1
DMS-114 = test system: DMS-114
NCI-H522 = test system: NCI-H522
MDA-N = test system: MDA-N
OVCAR-3 = test system: OVCAR-3
UACC-62 = test system: UACC-62
EKVX = test system: EKVX
CCRF-CEM = test system: CCRF-CEM
M14 = test system: M14
Malme-3M = test system: Malme-3M
MOLT-4 = test system: MOLT-4
HCT-116 = test system: HCT-116
SF-268 = test system: SF-268
A549 = test system: A549
SN12C = test system: SN12C
NCI/ADR-RES = test system: NCI/ADR-RES

Measured: GI50

Cc1cc(NCCCCCCCNc2cc(C)nc3cc([N+](=O)[O-])ccc23)c2ccc([N+](=O)[O-])cc2n1
inactive: SNB-75 11.2 µM | SF-539 8.63 µM | OVCAR-4 2 µM | HOP-92 16.5 µM | CAKI-1 23.7 µM | DMS-114 1.38 µM | NCI-H522 1.61 µM | MDA-N 1.78 µM | OVCAR-3 4.38 µM | UACC-62 16.6 µM | EKVX 15.2 µM | CCRF-CEM 2.04 µM | M14 10.7 µM | Malme-3M 29.6 µM | MOLT-4 1.9 µM | HCT-116 1.69 µM | SF-268 2.4 µM | A549 3.69 µM | SN12C 4 µM

O=C1c2c(nc3ccccc3c2-c2ccccc2)CN1Nc1ccccn1
inactive: SNB-75 34.7 µM | SF-539 > 75.2 µM | OVCAR-4 > 80.7 µM | HOP-92 38.4 µM | CAKI-1 47.3 µM | DMS-114 27.5 µM | NCI-H522 > 78.3 µM | MDA-N > 100 µM | OVCAR-3 75 µM | UACC-62 > 83 µM | EKVX 69 µM | CCRF-CEM 79.1 µM | M14 > 100 µM | Malme-3M 78.3 µM | MOLT-4 71.4 µM | NCI/ADR-RES 43 µM | HCT-116 79.8 µM | SF-268 75.9 µM | A549 59.4 µM | SN12C 53.6 µM
